The target of the test is Adenosine receptor A2a (Rattus norvegicus, UniProt P30543).
Chain of Adenosine receptor A2a (P30543 whole entry): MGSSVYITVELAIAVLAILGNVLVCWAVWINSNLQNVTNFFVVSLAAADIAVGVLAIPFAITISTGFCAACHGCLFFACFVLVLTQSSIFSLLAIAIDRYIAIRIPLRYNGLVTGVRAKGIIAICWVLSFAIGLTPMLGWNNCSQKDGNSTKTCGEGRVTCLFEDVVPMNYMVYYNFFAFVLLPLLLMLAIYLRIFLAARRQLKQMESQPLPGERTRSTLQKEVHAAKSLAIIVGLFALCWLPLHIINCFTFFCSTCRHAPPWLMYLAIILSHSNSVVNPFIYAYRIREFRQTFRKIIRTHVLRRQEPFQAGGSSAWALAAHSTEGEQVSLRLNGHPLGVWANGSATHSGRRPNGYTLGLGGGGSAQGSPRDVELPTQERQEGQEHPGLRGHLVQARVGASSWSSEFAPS
Usually Ki stands for a dissociation constant, usually derived from enzyme kinetics or from competition with a known ligand. Higher therefore signals weaker binding. For `CCn1c(=O)c2c(nc(CCCc3ccccc3)n2CC)n(CC)c1=O` [8-(3-Phenylpropyl)-1,3,7-triethylxanthine (9d)], the Ki is > 1000 nM.

Turning to `CCn1c(=O)c2c(nc(/C=C/c3cccc(C(F)(F)F)c3)n2C)n(CC)c1=O` [(E)-8-[3-(Trifluoromethyl)styryl]-1,3-diethyl-7-methylxanthine (6f)], the Ki was 11.9 nM.

With `CCn1c(COc2ccccc2)nc2c1c(=O)n(C)c(=O)n2C` [8-Phenoxymethyl-1,3-dimethyl-7-ethylxantine (8b)], the inhibition constant Ki is > 1000 nM.

Take `CCn1c(CCCc2ccccc2)nc2c1c(=O)n(C)c(=O)n2C` [8-(3-Phenylpropyl)-1,3-dimethyl-7-ethylxanthine (9b)]: the Ki is > 1000 nM.

As to `CCn1c(/C=C/c2cccc(C(F)(F)F)c2)nc2c1c(=O)n(C)c(=O)n2C` [(E)-8-[3-(Trifluoromethyl)styryl]-1,3-dimethyl-7-ethylxanthine (5f)], affinity was put at a Ki of 93.8 nM.

For `CCn1c(/C=C/c2ccc(Br)cc2)nc2c1c(=O)n(C)c(=O)n2C` [(E)-8-(4-Bromostyryl)-1,3-dimethyl-7-ethylxanthine (5e)], the affinity corresponds to a Ki of 546 nM. This Ki lies about 5.8-fold higher than the previous one.

The compound `CCn1c(/C=C/c2cccc(Cl)c2)nc2c1c(=O)n(C)c(=O)n2C` [(E)-8-(3-Chlorostyryl)-1,3-dimethyl-7-ethylxanthine (5a)] returned a Ki of 421 nM.

Compound `Cn1c(=O)c2c(nc(/C=C/c3ccc(Cl)cc3)n2C)n(C)c1=O` registered a Ki of 169 nM.

Compound `CCn1c(=O)c2c(nc(/C=C/c3ccc(Cl)c(Cl)c3)n2CC)n(CC)c1=O` [(E)-8-(3,4-Dichlorostyryl)-1,3,7-triethylxanthine (7c)] gave a Ki of 428 nM.

`CCn1c(/C=C/c2ccc(Cl)cc2)nc2c1c(=O)n(C)c(=O)n2C` [(E)-8-(4-Chlorostyryl)-1,3-dimethyl-7-ethylxanthine (5b)] came in with a Ki of 95.3 nM.

The compound `CCn1c(=O)c2c(nc(/C=C/c3cccc(Br)c3)n2CC)n(CC)c1=O` [(E)-8-(3-Bromostyryl)-1,3,7-triethylxanthine (7d)] gave a Ki of 161 nM. This Ki lies about 1.7-fold higher than the previous one.

Compound `CCn1c(/C=C/c2cccc(Br)c2)nc2c1c(=O)n(C)c(=O)n2C` [(E)-8-(3-Bromostyryl)-1,3-dimethyl-7-ethylxanthine (5d)] showed a Ki of 58.2 nM.

Regarding `CCn1c(=O)c2c(nc(/C=C/c3cccc(Cl)c3)n2C)n(CC)c1=O` [(E)-8-(3-Chlorostyryl)-1,3-diethyl-7-methylxanthine (6a)], affinity was put at a Ki of 24.3 nM.

`CCn1c(=O)c2c(nc(/C=C/c3ccc(Br)cc3)n2C)n(CC)c1=O` [(E)-8-(4-Bromostyryl)-1,3-diethyl-7-methylxanthine (6e)]: the Ki is 28.9 nM.

Take `CCn1c(=O)c2c(nc(/C=C/c3ccc(Cl)cc3)n2CC)n(CC)c1=O` [(E)-8-(4-Chlorostyryl)-1,3,7-triethylxanthine (7b)]: the Ki is > 1000 nM.

As to `Cn1c(=O)c2c(nc(CCCc3ccccc3)n2C)n(C)c1=O` [8-(3-Phenylpropyl)-1,3,7-trimethylxanthine (9a)], the Ki is > 1000 nM.

`CCn1c(=O)c2c(nc(/C=C/c3cccc(Br)c3)n2C)n(CC)c1=O` [(E)-8-(3-Bromostyryl)-1,3-diethyl-7-methylxanthine (6d)] gave a Ki of 17.2 nM. In other words, the double-digit nanomolar range.

The compound `CCn1c(/C=C/c2ccc(Cl)c(Cl)c2)nc2c1c(=O)n(C)c(=O)n2C` [(E)-8-(3,4-Dichlorostyryl)-1,3-dimethyl-7-ethylxanthine (5c)] had a Ki of 32.9 nM.

On to `CCn1c(=O)c2c(nc(/C=C/c3cccc(Cl)c3)n2CC)n(CC)c1=O` [(E)-8-(3-Chlorostyryl)-1,3,7-triethylxanthine (7a)], for which the Ki was > 1000 nM.

`Cn1c(=O)c2c(nc(/C=C/c3cccc(Br)c3)n2C)n(C)c1=O` [(E)-8-(3-Bromostyryl)-1,3,7-trimethylxanthine (4c)] registered a Ki of 28.4 nM.

Take `CCn1c(=O)c2c(nc(/C=C/c3cccc(C(F)(F)F)c3)n2CC)n(CC)c1=O` [(E)-8-[3-(Trifluoromethyl)styryl]-1,3,7-triethylxanthine (7f)]: the Ki is > 1000 nM.

As for `CCn1c(=O)c2c(nc(COc3ccccc3)n2C)n(CC)c1=O` [8-Phenoxymethyl-1,3-diethyl-7-methylxanthine (8c)], the inhibitory constant (Ki) is > 1000 nM.

Regarding `Cn1c(=O)c2c(nc(COc3ccccc3)n2C)n(C)c1=O`, the Ki came to 137 nM.

Compound `Cn1c(=O)c2c(nc(/C=C/c3ccc(Cl)c(Cl)c3)n2C)n(C)c1=O` [(E)-8-(3,4-Dichlorostyryl)caffeine (4b)] displayed a Ki of 44.8 nM.

In turn, `Cn1c(=O)c2c(nc(/C=C/c3ccc(Br)cc3)n2C)n(C)c1=O` [(E)-8-(4-Bromostyryl)-1,3,7-trimethylxanthine (4d)] showed a Ki of 127 nM.

Consider `Cn1c(=O)c2c(nc(/C=C/c3cccc(C(F)(F)F)c3)n2C)n(C)c1=O`, for which the inhibitory constant (Ki) was determined as 125 nM. The Ki values of the last two compounds are within 1.5-fold of each other.

`CCn1c(=O)c2c(nc(/C=C/c3ccc(Br)cc3)n2CC)n(CC)c1=O` [(E)-8-(4-Bromostyryl)-1,3,7-triethylxanthine (7e)] registered a Ki of 83 nM.

Regarding `CCn1c(=O)c2c(nc(CCCc3ccccc3)n2C)n(CC)c1=O` [8-(3-Phenylpropyl)-1,3-diethyl-7-methylxanthine (9c)], the Ki is > 1000 nM.

Consider `CCn1c(=O)c2c(nc(COc3ccccc3)n2CC)n(CC)c1=O` [8-Phenoxymethyl-1,3,7-triethylxanthine (8d)], for which the Ki is > 1000 nM.

Values taken from BindingDB's records for doi:10.1016/j.bioorg.2013.06.006 (North-West University, Private Bag X6001, Potchefstroom …, 2013).
